Reference: patent publication US20200239530A1, “COMPOUNDS AND METHODS OF MODULATING PROTEIN DEGRADATION” (Vividion Therapeutics, Inc., priority 2017, published 2020)
Read-outs that look alike come from different tables or passages of the source.

What was measured:
[1] = molecular target: T1, PCGF2 Polycomb group RING finger protein 2 (Homo sapiens, UniProt P35227); test: Cysteine liganding, probe competition; type: binding
T1 construct: Cells were resuspended in cold PBS on ice and sonicated with a probe sonicator to achieve lysis; endogenous in cells
T1 sequence (P35227 1-344): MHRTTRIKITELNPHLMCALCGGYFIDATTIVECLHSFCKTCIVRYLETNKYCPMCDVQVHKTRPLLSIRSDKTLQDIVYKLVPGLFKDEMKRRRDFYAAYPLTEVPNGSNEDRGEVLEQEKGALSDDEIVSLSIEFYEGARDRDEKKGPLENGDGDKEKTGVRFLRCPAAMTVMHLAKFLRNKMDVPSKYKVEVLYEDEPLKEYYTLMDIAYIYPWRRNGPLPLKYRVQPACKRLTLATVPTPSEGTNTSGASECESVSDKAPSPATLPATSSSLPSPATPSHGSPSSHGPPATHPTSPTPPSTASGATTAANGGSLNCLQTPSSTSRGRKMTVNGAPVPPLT
Protocol: (§1) Cells were resuspended in cold PBS on ice and sonicated with a probe sonicator to achieve lysis. 200 μL of lysate containing 5 mg/ml proteome was treated with 2 μL of 100× compound stock in a 2-mL deep-well plate. The treated lysate was subsequently incubate at 25° C. for 1 hr with shaking at 600 rpm. The treated lysate was further incubated with 2 μL of 10 mM desthiobiotin iodoacetamide probe at 25° C. for 1 hr with shaking at 600 rpm. Next, the lysate was further treat with 20 μL of solution of PBS containing 11 mM MgSO4 and 2.5% Turbonuclease stock and incubated at 25° C. for 20 minutes with shaking at 600 rpm. 1.7 mL ice-cold acetone was added to each well and incubated at −20° C. for 2 hr, followed by max speed (4200 rpm) spin for 45 min. Acetone was then decanted and the plates were blotted to remove acetone. The plates were then dried in open air for 20 minutes. After drying, the plates were then covered with foil seal and stored at −80° C. overnight.
(§2) The next day, samples were re-suspended in 90 μL of solution of 9M urea, 50 mM ammonium bicarbonate and 10 mM DTT by incubating at 65C for 20 min with shaking at 1500 rpm. Next, samples were cooled to 37° C. and then 10 μL of 500 mM iodoacetamide solution (92.48 mg/ml) was added. The samples were then incubated at 37° C. for 30 min with shaking at 600 rpm.
(§3) ZEBA desalting plates were equilibrated 4 times using 250 μL of 2M urea, 50 mM ammonium bicarbonate solution followed by centrifugation at 1500 rpm for 2 minutes. After equilibration was complete, samples were applied to ZEBA desalting plate and spin at 1500 rpm for 2 min on top of 1 mL 96-well deep-well collection plate to buffer exchange samples. 4 μL of solution containing 25 mM CaCl2 and 0.25 mg/mL trypsin was added to the plate and the plate was then incubated at 37° C. for 2 hrs with shaking at 600 rpm. 300 μL of solution containing 5% high-capacity streptavidin agarose slurry in 25 mM Tris-HCl pH 7.5, 150 mM NaCl, and 0.1% NP-40 then added. The plate was incubated at 25° C. for 2 hrs with shaking at 600 rpm. Samples were transferred to 25 μm filter plate and spin at 1000 rpm for 2 min. Samples were then washed 3 times with 0.75 mL of wash buffer (25 mM Tris-HCl pH 7.5, 150 mM NaCl, and 0.1% NP-40) followed by washing 3 times with 0.75 mL PBS, and then 4 times with 0.75 mL water. After the washing step, samples were eluted into polypropylene 96-well plate by addition of 250 µL of 50% MeCN/water, 0.1% formic acid and allowed to gravity drip for 10 min, followed by centrifugation at 1000 rpm for 2 min. Speedvac was used to dry the plates at about 45° C. for […]. Then the plates were covered with foil seal and stored at −20° C.
(§4) Samples were resuspended by addition of 20 μl of 12.5% ACN, 0.1% formic acid solution, covered with foil seal, and incubated at 42° C. for 10 minutes with shaking at 600 rpm. Then add 30 μL of 0.1% formic acid solution was added and the plate was covered and incubated at 42° C. for 10 minutes with shaking at 600 rpm. Seal plate was then sealed with a 96-well silicon mat for analysis.

[2] = molecular target: T2, AREL1 Apoptosis-resistant E3 ubiquitin protein ligase 1 (Homo sapiens, UniProt O15033); test: Cysteine liganding, probe competition; type: binding
T2 construct: endogenous in cells
T2 sequence (O15033 1-823): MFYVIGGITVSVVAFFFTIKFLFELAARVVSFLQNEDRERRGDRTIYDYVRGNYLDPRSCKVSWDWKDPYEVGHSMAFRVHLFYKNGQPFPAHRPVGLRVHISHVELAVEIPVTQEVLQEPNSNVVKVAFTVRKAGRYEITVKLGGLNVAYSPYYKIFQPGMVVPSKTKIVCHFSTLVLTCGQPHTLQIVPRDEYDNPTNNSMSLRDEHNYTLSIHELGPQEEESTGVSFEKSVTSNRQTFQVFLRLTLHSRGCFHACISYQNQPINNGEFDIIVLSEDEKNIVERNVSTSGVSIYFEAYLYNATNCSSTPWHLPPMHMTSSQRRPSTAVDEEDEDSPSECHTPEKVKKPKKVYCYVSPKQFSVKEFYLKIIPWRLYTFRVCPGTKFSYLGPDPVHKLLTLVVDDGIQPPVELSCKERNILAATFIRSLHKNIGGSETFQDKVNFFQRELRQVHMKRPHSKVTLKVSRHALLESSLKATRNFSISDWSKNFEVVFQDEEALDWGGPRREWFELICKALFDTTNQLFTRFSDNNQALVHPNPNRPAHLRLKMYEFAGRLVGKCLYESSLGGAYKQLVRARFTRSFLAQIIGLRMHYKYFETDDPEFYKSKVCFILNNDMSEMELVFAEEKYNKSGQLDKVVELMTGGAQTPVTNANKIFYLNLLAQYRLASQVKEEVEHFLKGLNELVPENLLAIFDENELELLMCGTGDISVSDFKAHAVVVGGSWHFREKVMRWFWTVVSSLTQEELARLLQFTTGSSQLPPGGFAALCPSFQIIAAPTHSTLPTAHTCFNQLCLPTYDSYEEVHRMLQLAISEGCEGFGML
Protocol: as §1, §2, §3, §4

## COc1ccc2c(c1)CCCN2C(=O)CCl [KB02]
[1]; PCGF2 Res# 233, uniprot P35227
  Liganded: YES
[2]; 100 uM, UniProt O15033, read-out: KB02_100 uM_percent_inhibition
  inhibition at 100 µM: 77%
[2]; 500 uM, UniProt O15033, read-out: KB02_500 uM_percent_inhibition
  inhibition at 500 µM: 96%
[2]; AREL1 Res# 382, uniprot O15033
  Liganded: YES

## C=CC(=O)N(c1ccccc1)c1ccc(Br)cc1 [KB05]
[1]; UniProt P35227, 100 uM
  KB05_100 uM_percent_inhibition: 29%
[1]; UniProt P35227, 100 uM, read-out: KB05_100 uM_percent_inhibition
  inhibition at 100 µM: 28%
[2]; 100 uM, UniProt O15033, read-out: KB05_100 uM_percent_inhibition
  inhibition at 100 µM: 69%
[2]; 500 uM, UniProt O15033, read-out: KB05_500 uM_percent_inhibition
  inhibition at 500 µM: 92%

## O=C(CCl)Nc1cc(C(F)(F)F)cc(C(F)(F)F)c1 [KBO3]
[1]; UniProt P35227, 100 uM
  KB03_100 uM_percent_inhibition: 37%
[1]; uniprot P35227
  100 ave: −4.4
  500 ave: 35.9
[1]; uniprot P35227, unit assumed
  100 Max: 5.9%
  500 Max: 49.9%
[2]; 100 uM, UniProt O15033
  KB03_100 uM_percent_inhibition: 57%
[2]; 500 uM, UniProt O15033
  KB03_500 uM_percent_inhibition: 87%
[2]; uniprot O15033
  100 Max: 56.8
  100 ave: 49.1
  500 ave: 55.1
[2]; uniprot O15033, unit assumed
  500 Max: 55.1%
